This note sets out measurements from patent US20220125791A1, “NOVEL DEVICES” (INTRA-CELLULAR THERAPIES, INC., priority 2019, published 2022).

Read-outs that look alike come from different tables or passages of the source.

The nature of this series: Compound 1 in plasma and ocular tissue following topical administration. The format is in vivo, male hypertensive New Zealand White Rabbit. The note with it: for AUC(0-t): male, New Zealand White, rabbit, topical or ocular, topical administration, 5% (2-Hydroxypropyl)-β-cyclodextrin in PBS pH 7.4, LC-MS/MS. The protocol: The goal of this study was to determine the presence/absence of Compound 1 in male hypertensive New Zealand White Rabbit plasma and ocular tissue following a topical administration. For the study, Compound 1 was formulated with 5% (2-Hydroxypropyl)-β-cyclodextrin in phosphate-buffered saline pH 7.4 at 60 μg/eye. Plasma, Cornea, Conjunctiva, Aqueous Humor (AH), and Iris Ciliary Body (ICB) samples were collected for analysis of the concentrations of Compound 1 using LC-MS/MS methods.

Consider `CN1C(=O)c2c(nn(Cc3ccc(-c4ccccn4)cc3)c2Nc2ccccc2)N2C1=N[C@@H]1CCC[C@@H]12` [Compound 1], for which the AUC(0-t) was 866 ng·h/mL (60 μg/eye, aqueous humor, read-out: AUC0-24hr in the aqueous humor) and 46.3 ng·h/mL (60 μg/eye, plasma, read-out: AUC0-24hr in the plasma). Besides, the “availability in ocular tissue” value (ocular tissue upon topical administration, 60 μg/eye (FIG. 1)) was “rapid availability”. In addition, the presence in plasma entry (plasma, 1 hour after topical administration, 60 μg/eye) is on record as “present”.
